The test relates to mice. The test is described as follows: In vivo delivery of FLuc-circ-RNA lipid nanoparticles in mice (IVIS imaging). As to conditions: for delivery efficiencies on change from mRNA to circular RNA: statement on Table 3, circular RNA LNP vs mRNA LNP; for IVIS: FLuc-circRNA LNP, IV. The protocol:
8.2 Investigation of the Delivery Efficacy of Nucleic Acid Lipid Nanoparticles for FLuc-Circ-mRNA in Mice
Lipid nanoparticles loaded with nucleic acid drugs were prepared according to step 2, replacing FLuc-mRNA with FLuc-circ-RNA (Shanghai Zhiwei Technology Development Co., Ltd.). After formulation, the nanoparticles were administered via intramuscular injection (into the quadriceps femoris muscle of mice), intravenous injection (into the tail vein of mice), intraperitoneal injection, or subcutaneous injection (subcutaneously on the back). Approximately 75 μL was injected per mouse, with a total of 3 mice per group. In vivo imaging (PerkinElmer, IVIS Lumina III) was performed after a certain period of time. Ten to fifteen minutes before imaging, 200 μL of a 15 mg/mL D-Luciferin working solution was injected intraperitoneally, followed by imaging analysis using the in vivo imaging system.

The structures appear in SMILES notation.

Consider `CCCCCCCCC(CCCCCC)C(=O)NCCOC(=O)C(O)CN(CCO)CCCN(CC(O)C(=O)OCCNC(=O)C(CCCCCC)CCCCCCCC)CC(O)C(=O)OCCNC(=O)C(CCCCCC)CCCCCCCC` (stereo not shown) [Compound L0714], for which the “delivery efficiencies on change from mRNA to circular RNA” value (shortened to “delivery efficiencies on change”) is “further increased the delivery efficiencies”.
As for `CCCCCCOC(C)OCCCCCCOC(=O)C(O)CN(CCO)CCCN(CC(O)C(=O)OCCCCCCOC(C)OCCCCCC)CC(O)C(=O)OCCCCCCOC(C)OCCCCCC` (stereo not shown) [Compound L0692], the “delivery efficiencies on change” value is recorded as “further increased the delivery efficiencies”. For the same compound, the IVIS (organ liver) is reported as 3.34E+06. The IVIS (organ lung) came out at 8.55E+04. Under “organ spleen”, the IVIS was 2.64E+06.
Consider `CCCCCCC(CCCCCC)C(=O)NCCOC(=O)C(O)CN(CCO)CCCN(CC(O)C(=O)OCCNC(=O)C(CCCCCC)CCCCCC)CC(O)C(=O)OCCNC(=O)C(CCCCCC)CCCCCC` (stereo not shown) [Compound L0711], for which the “delivery efficiencies on change” value is recorded as “further increased the delivery efficiencies”.
Turning to `CCCCCCC(CCCCCC)C(=O)OCCCCCCNC(=O)C(O)CN(CCO)CCCN(CC(O)C(=O)NCCCCCCOC(=O)C(CCCCCC)CCCCCC)CC(O)C(=O)NCCCCCCOC(=O)C(CCCCCC)CCCCCC` (stereo not shown) [Compound L0710], the “delivery efficiencies on change” value was “further increased the delivery efficiencies”. For the same compound, where the note is “organ liver”, the IVIS turned out to be 3.07E+08. The compound further showed an IVIS (organ lung) of 4.78E+06. This compound yielded an IVIS (organ spleen) of 9.97E+07.

The values are drawn from US20250312288A1, “LIPIDS AND LIPID NANOPARTICLE FORMULATIONS” (LONGUIDE BIOPHARMA CORPORATION, priority 2024, published 2025).
